Results: article PMC11146149 (RSC Advances, 2024)

How the values were obtained:
Format in all cases: biochemical
[1] = biological target: T1, egg albumin (Gallus gallus, UniProt P01012); test: Inhibition of protein denaturation method; details: read-out: Inhibition of protein denaturation (%)
T1 sequence (P01012 2-386): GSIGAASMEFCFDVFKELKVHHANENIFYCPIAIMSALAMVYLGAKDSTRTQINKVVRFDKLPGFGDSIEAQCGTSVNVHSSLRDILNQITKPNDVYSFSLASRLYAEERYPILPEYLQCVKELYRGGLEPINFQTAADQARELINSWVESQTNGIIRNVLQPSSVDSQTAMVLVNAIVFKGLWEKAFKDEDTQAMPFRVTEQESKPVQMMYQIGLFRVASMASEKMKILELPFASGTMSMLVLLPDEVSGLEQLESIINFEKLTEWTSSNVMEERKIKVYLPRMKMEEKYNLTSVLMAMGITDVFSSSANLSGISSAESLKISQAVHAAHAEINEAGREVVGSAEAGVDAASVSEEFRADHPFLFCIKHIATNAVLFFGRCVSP

[2] = biological target: T2, COX-1 (Ovis aries, UniProt P05979); test: In vitro COX inhibitory assay; details: for inhibition at 50 µg/mL / inhibition at 100 µg/mL / inhibition at 150 µg/mL: read-out: Inhibition of COX-1 (%); for Inhibition of COX-1 in comparison to indomethacin: result in words
T2 sequence (P05979 25-600): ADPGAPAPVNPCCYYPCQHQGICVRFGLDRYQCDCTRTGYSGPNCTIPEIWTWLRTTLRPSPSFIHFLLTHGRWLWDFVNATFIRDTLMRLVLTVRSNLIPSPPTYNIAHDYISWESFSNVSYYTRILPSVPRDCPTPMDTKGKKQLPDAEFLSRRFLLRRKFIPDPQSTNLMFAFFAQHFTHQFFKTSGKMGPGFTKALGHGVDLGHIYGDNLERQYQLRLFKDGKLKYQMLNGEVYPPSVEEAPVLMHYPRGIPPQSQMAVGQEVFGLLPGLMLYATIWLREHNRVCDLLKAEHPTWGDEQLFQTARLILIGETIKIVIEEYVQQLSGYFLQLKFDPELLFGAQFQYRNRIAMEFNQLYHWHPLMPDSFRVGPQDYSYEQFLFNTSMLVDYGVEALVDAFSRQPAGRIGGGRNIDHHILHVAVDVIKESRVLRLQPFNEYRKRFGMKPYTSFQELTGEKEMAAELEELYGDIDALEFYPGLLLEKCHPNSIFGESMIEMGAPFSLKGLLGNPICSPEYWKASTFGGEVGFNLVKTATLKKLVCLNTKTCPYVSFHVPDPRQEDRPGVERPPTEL

[3] = biological target: T3, COX-2 (Homo sapiens, UniProt P35354); test: In vitro COX inhibitory assay; details: for Selectivity index: COX-1/COX-2 selectivity index; for inhibition at 50 µg/mL / inhibition at 100 µg/mL / inhibition at 150 µg/mL: read-out: Inhibition of COX-2 (%); for Inhibition of COX-2 in comparison to indomethacin: result in words
T3 sequence (P35354 18-604): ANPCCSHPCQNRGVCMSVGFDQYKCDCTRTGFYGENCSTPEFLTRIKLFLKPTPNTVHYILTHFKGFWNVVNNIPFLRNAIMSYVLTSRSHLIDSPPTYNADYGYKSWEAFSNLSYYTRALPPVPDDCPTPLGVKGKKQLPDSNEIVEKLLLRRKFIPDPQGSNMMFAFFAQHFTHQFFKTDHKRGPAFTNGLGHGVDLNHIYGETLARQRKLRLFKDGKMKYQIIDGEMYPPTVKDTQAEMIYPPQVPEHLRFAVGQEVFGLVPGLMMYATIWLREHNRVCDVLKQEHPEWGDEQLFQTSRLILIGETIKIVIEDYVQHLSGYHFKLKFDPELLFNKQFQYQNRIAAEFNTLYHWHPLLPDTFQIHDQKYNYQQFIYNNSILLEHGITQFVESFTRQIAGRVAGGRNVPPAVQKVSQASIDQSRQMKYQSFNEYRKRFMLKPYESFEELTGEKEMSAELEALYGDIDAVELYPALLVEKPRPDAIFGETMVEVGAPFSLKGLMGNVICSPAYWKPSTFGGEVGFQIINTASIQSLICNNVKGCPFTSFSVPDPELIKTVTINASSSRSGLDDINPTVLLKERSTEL

SMILES: NC1=NC(c2ccco2)n2nc(C(=O)Nc3ccc(S(N)(=O)=O)cc3)nc2N1 (centres unmarked) [Compound 4, 5-Amino-7-(furan-2-yl)-N-(4-sulfamoylphenyl)-4,7-dihydro-[1,2,4]-triazolo[1,5-a][1,3,5]triazine-2-carboxamide]
- inhibition at 50 µg/mL [1]: 90.3%
- inhibition at 100 µg/mL [1]: 95%
- inhibition at 200 µg/mL [1]: 99.2%
- inhibition at 300 µg/mL [1]: 91.3%
- IC50 [2]: 99.5 µM
- inhibition at 50 µg/mL [2]: 62.43 ± 0.01%
- inhibition at 100 µg/mL [2]: 80.64 ± 0.01%
- inhibition at 150 µg/mL [2]: 90.02 ± 0.02%
- IC50 [3]: 69 µM
- Selectivity index [3]: 1.44
- inhibition at 50 µg/mL [3]: 90.03 ± 0.02%
- inhibition at 100 µg/mL [3]: 95.11 ± 0.01%
- inhibition at 150 µg/mL [3]: 98.92 ± 0.02%

SMILES: Cc1ccccc1C1N=C(N)Nc2nc(C(=O)Nc3ccc(S(N)(=O)=O)cc3)nn21 (centres unmarked) [Compound 5, 5-Amino-N-(4-sulfamoylphenyl)-7-(o-tolyl)-4,7-dihydro-[1,2,4]-triazolo[1,5-a][1,3,5]triazine-2-carboxamide]
- inhibition at 50 µg/mL [1]: 59.7%
- inhibition at 100 µg/mL [1]: 64.5%
- inhibition at 200 µg/mL [1]: 70.3%
- inhibition at 300 µg/mL [1]: 78.2%
- IC50 [2]: 180 µM
- inhibition at 50 µg/mL [2]: 32.51 ± 0.03%
- inhibition at 100 µg/mL [2]: 56.64 ± 0.01%
- inhibition at 150 µg/mL [2]: 74.32 ± 0.03%
- IC50 [3]: 97.7 µM
- Selectivity index [3]: 1.84
- inhibition at 50 µg/mL [3]: 60.01 ± 0.05%
- inhibition at 100 µg/mL [3]: 67.25 ± 0.02%
- inhibition at 150 µg/mL [3]: 75.31 ± 0.01%

SMILES: NC1=NC(/C=C/c2ccccc2)n2nc(C(=O)Nc3ccc(S(N)(=O)=O)cc3)nc2N1 (centres unmarked) [Compound 6, (E)-5-Amino-7-styryl-N-(4-sulfamoylphenyl)-4,7-dihydro-[1,2,4]-triazolo[1,5-a][1,3,5]triazine-2-carboxamide]
- inhibition at 50 µg/mL [1]: 53.7%
- inhibition at 100 µg/mL [1]: 58.4%
- inhibition at 200 µg/mL [1]: 67.4%
- inhibition at 300 µg/mL [1]: 72.1%
- Inhibition of COX-1 in comparison to indomethacin [2]: less inhibition
- Inhibition of COX-2 in comparison to indomethacin [3]: less inhibition

SMILES: NC1=NC(C2N=C(N)Nc3nc(C(=O)Nc4ccc(S(N)(=O)=O)cc4)nn32)n2nc(C(=O)Nc3ccc(S(N)(=O)=O)cc3)nc2N1 (centres unmarked) [Compound 7, 5,5′-Diamino-N2,N2′-bis(4-sulfamoylphenyl)-4,4′,7,7′-tetrahydro-[7,7′-bi[1,2,4]triazolo[1,5-a][1,3,5]triazine]-2,2′-dicarboxamide]
- inhibition at 50 µg/mL [1]: 54.7%
- inhibition at 100 µg/mL [1]: 59.5%
- inhibition at 200 µg/mL [1]: 65.3%
- inhibition at 300 µg/mL [1]: 73.2%
- Inhibition of COX-1 in comparison to indomethacin [2]: less inhibition
- Inhibition of COX-2 in comparison to indomethacin [3]: less inhibition

SMILES: NC1=NC(c2ccccc2Cl)n2nc(C(=O)Nc3ccc(S(N)(=O)=O)cc3)nc2N1 (centres unmarked) [Compound 8, 5-Amino-7-(2-chlorophenyl)-N-(4-sulfamoylphenyl)-4,7-dihydro-[1,2,4]-triazolo[1,5-a][1,3,5]triazine-2-carboxamide]
- inhibition at 50 µg/mL [1]: 59.5%
- inhibition at 100 µg/mL [1]: 64.2%
- inhibition at 200 µg/mL [1]: 70%
- inhibition at 300 µg/mL [1]: 77.9%
- IC50 [2]: 186 µM
- inhibition at 50 µg/mL [2]: 30.12 ± 0.02%
- inhibition at 100 µg/mL [2]: 55.41 ± 0.05%
- inhibition at 150 µg/mL [2]: 71.23 ± 0.05%
- IC50 [3]: 89.3 µM
- Selectivity index [3]: 2.07
- inhibition at 50 µg/mL [3]: 62.64 ± 0.01%
- inhibition at 100 µg/mL [3]: 64.78 ± 0.01%
- inhibition at 150 µg/mL [3]: 71.61 ± 0.01%

SMILES: COc1ccc(C2N=C(N)Nc3nc(C(=O)Nc4ccc(S(N)(=O)=O)cc4)nn32)cc1 (centres unmarked) [Compound 9, 5-Amino-7-(4-methoxyphenyl)-N-(4-sulfamoylphenyl)-4,7-dihydro-[1,2,4]-triazolo[1,5-a][1,3,5]triazine-2-carboxamide]
- inhibition at 50 µg/mL [1]: 51%
- inhibition at 100 µg/mL [1]: 55.8%
- inhibition at 200 µg/mL [1]: 61.6%
- inhibition at 300 µg/mL [1]: 69.5%
- Inhibition of COX-1 in comparison to indomethacin [2]: less inhibition
- Inhibition of COX-2 in comparison to indomethacin [3]: less inhibition

SMILES: NC1=NC(c2cccc3ccccc23)n2nc(C(=O)Nc3ccc(S(N)(=O)=O)cc3)nc2N1 (centres unmarked) [Compound 10, 5-Amino-7-(naphthalen-1-yl)-N-(4-sulfamoylphenyl)-4,7-dihydro-[1,2,4]-triazolo[1,5-a][1,3,5]triazine-2-carboxamide]
- inhibition at 50 µg/mL [1]: 55%
- inhibition at 100 µg/mL [1]: 59.7%
- inhibition at 200 µg/mL [1]: 65.5%
- inhibition at 300 µg/mL [1]: 73.4%
- Inhibition of COX-1 in comparison to indomethacin [2]: less inhibition
- Inhibition of COX-2 in comparison to indomethacin [3]: less inhibition

SMILES: NC1=NC(c2ccccc2O)n2nc(C(=O)Nc3ccc(S(N)(=O)=O)cc3)nc2N1 (centres unmarked) [Compound 11, 5-Amino-7-(2-hydroxyphenyl)-N-(4-sulfamoylphenyl)-4,7-dihydro-[1,2,4]-triazolo[1,5-a][1,3,5]triazine-2-carboxamide]
- inhibition at 50 µg/mL [1]: 83.4%
- inhibition at 100 µg/mL [1]: 88.2%
- inhibition at 200 µg/mL [1]: 93.9%
- inhibition at 300 µg/mL [1]: 98.2%
- IC50 [2]: 141 µM
- inhibition at 50 µg/mL [2]: 41.28 ± 0.04%
- inhibition at 100 µg/mL [2]: 63.43 ± 0.04%
- inhibition at 150 µg/mL [2]: 80.12 ± 0.03%
- IC50 [3]: 96.7 µM
- Selectivity index [3]: 1.46
- inhibition at 50 µg/mL [3]: 60.3 ± 0.05%
- inhibition at 100 µg/mL [3]: 81.99 ± 0.01%
- inhibition at 150 µg/mL [3]: 98.97 ± 0.06%

SMILES: CN(C)c1ccc(C2N=C(N)Nc3nc(C(=O)Nc4ccc(S(N)(=O)=O)cc4)nn32)cc1 (centres unmarked) [Compound 12, 5-Amino-7-(4-(dimethylamino)phenyl)-N-(4-sulfamoylphenyl)-4,7-dihydro-[1,2,4]-triazolo[1,5-a][1,3,5]triazine-2-carboxamide]
- inhibition at 50 µg/mL [1]: 55.8%
- inhibition at 100 µg/mL [1]: 60.5%
- inhibition at 200 µg/mL [1]: 66.3%
- inhibition at 300 µg/mL [1]: 74.2%
- IC50 [2]: 192 µM
- inhibition at 50 µg/mL [2]: 28.64 ± 0.04%
- inhibition at 100 µg/mL [2]: 53.24 ± 0.03%
- inhibition at 150 µg/mL [2]: 70.68 ± 0.04%
- IC50 [3]: 92.9 µM
- Selectivity index [3]: 2.06
- inhibition at 50 µg/mL [3]: 59.1 ± 0.01%
- inhibition at 100 µg/mL [3]: 80.98 ± 0.02%
- inhibition at 150 µg/mL [3]: 98.4 ± 0.02%

SMILES: NC1=NC(c2cccc(O)c2)n2nc(C(=O)Nc3ccc(S(N)(=O)=O)cc3)nc2N1 (centres unmarked) [Compound 13, 5-Amino-7-(3-hydroxyphenyl)-N-(4-sulfamoylphenyl)-4,7-dihydro-[1,2,4]-triazolo[1,5-a][1,3,5]triazine-2-carboxamide]
- inhibition at 50 µg/mL [1]: 55%
- inhibition at 100 µg/mL [1]: 59.8%
- inhibition at 200 µg/mL [1]: 65.7%
- inhibition at 300 µg/mL [1]: 73.6%
- Inhibition of COX-1 in comparison to indomethacin [2]: less inhibition
- Inhibition of COX-2 in comparison to indomethacin [3]: less inhibition
